Measured values reported in ChEMBL document CHEMBL3507680, “University of Dundee, Gates Library screen for HepG2 cell viability”.

Test: Human HepG2 cell viability assay in 384 well format
Assay type: toxicity, cell-based
Set-up: dose 125 nL, time 70.5 hour; cytotoxicity at 70.5 h: concentration not given beside the values
Settings: HepG2 cells, read-out: Inhibition

| Structure (SMILES) | cytotoxicity at 70.5 h [%] |
| --- | --- |
| CCN(C(c1cccnc1)c1cc(C)cc(C)c1)S(C)(=O)=O (stereo unspecified) | -9.96 |
| CC(c1cccc(O)c1)N(C)S(N)(=O)=O (stereo unspecified) | 37 |
| NC(=O)C1CCN(C(=O)Cc2ccc(Cl)c(Cl)c2)CC1 | -2.27 |
| Cc1ccsc1C(=O)NC(C)c1ccc2c(c1)CCC(=O)N2 (stereo unspecified) | -1.83 |
| Cn1cc(NC(=O)NCc2ccoc2)ccc1=O | -3.69 |
| CN(Cc1ccsc1)C(=O)Nc1cccc(N2CCOC2=O)c1 | 26.8 |
| Cn1cc(NC(=O)CCc2ccsc2)ccc1=O | -5.97 |
| Cc1ncc(CN(C)C(=O)Nc2cccc(CN3CCOC3=O)c2)s1 | -3.49 |
| Cc1ccc(CN(C(=O)C(C)S(C)(=O)=O)C2CC2)cc1C (stereo unspecified) | -4.96 |
| CN(C)c1cccc(C(=O)Nc2cn(C)c(=O)n(C)c2=O)c1 | -3.1 |
| Cn1cc(S(=O)(=O)N2CCCC2Cn2ccnc2)cn1 (stereo unspecified) | -3.56 |
| Cc1nn(C(C)C)c(C)c1S(=O)(=O)Nc1ccc(C(=O)O)c(Cl)c1 | -5.52 |
| Cc1cc2cc(CNC3CCN(CC4CCOC4)CC3)oc2cc1C (stereo unspecified) | 10.8 |
| CCn1cc(S(=O)(=O)NC(=O)CCc2c[nH]c3ccccc23)cn1 | -0.706 |
| COc1ccc(CNC(=O)NCCc2nc(C)c(C)s2)cn1 | -3.08 |
| Cn1cc(S(=O)(=O)NC(CO)Cc2c[nH]c3ccccc23)cn1 (stereo unspecified) | -7.44 |
| Cc1cc(C)cc(C(=O)NCc2ncnn2C)c1 | -5.75 |
| CC(NC(=O)c1sccc1C1CC1)c1ccc2c(c1)CC(=O)N2 (stereo unspecified) | -1.98 |
| Cc1cc2cc(CNC3CCN(S(C)(=O)=O)CC3)oc2cc1C | -1.78 |
| CCN(Cc1ccoc1)C(=O)NC1CCN(CC2CC2)C1 (stereo unspecified) | -5.67 |
| COCCCn1ccc(NCc2cnc(C(C)(C)C)s2)n1 | 27.4 |
| Cc1nc(CCNC(Cc2ccncc2)C(F)(F)F)cs1 (stereo unspecified) | -3.19 |
| Cc1cnc(CCNC(Cc2ccncc2)C(F)(F)F)s1 (stereo unspecified) | -7.12 |
| CCOC(=O)C(C)Nc1cccc(COCc2ccco2)c1 (stereo unspecified) | -1.34 |
| CC(C)(C)c1nc(CN(CCC2CCCCC2)CC(N)=O)no1 | 22.6 |

| Structure (SMILES) | cytotoxicity at 70.5 h [%] |
| --- | --- |
| O=S(=O)(Cc1ccccc1F)Cc1nnnn1C1CC1 | -14.6 |
| Cc1ccc(NS(=O)(=O)c2cnn(Cc3ccccc3)c2)c(C(=O)O)c1 | -21.3 |
| CCNC(=O)CCC(=O)N1CCC(Oc2cc(C)ccc2C)CC1 | -19.2 |
| O=S(=O)(Cc1c(F)cccc1Cl)Cc1nnnn1C1CC1 | -13.2 |
| CC(CC(=O)NCCS(N)(=O)=O)C1CCCCC1 (stereo unspecified) | -9.82 |
| [O-][S+](Cc1c(F)cccc1Cl)Cc1nnnn1C1CC1 (stereo unspecified) | -14.6 |
| CCSc1ccc(C(=O)N2CCCC2C(=O)N2CCOCC2)cn1 (stereo unspecified) | -12.5 |
| Cn1cc(C(O)CNC(=O)c2ccc(F)cc2Cl)cn1 (stereo unspecified) | -13 |
| O=C(NCCO)Nc1c(F)cc(F)cc1-c1ccccc1 | -10.7 |
| Cc1nc(NC(=O)c2nn(-c3ccc(F)cc3C)cc2O)n[nH]1 | -14.6 |
| CN1CCCN(C(=O)c2cnsn2)c2cc(Cl)ccc21 | -13.8 |
| O=C(CNC(=O)Nc1c(F)cc(F)cc1-c1ccccc1)NC1CC1 | -10.3 |
| CN1CCN(C(=O)c2cnsn2)c2cc(F)ccc21 | 1.4 |
| COc1ccc(CN2CCN(CCn3ccnc3)CC2)cc1F | -13.3 |
| CN(CC1(O)CCCC1)C(=O)c1cccc(Nc2cnccn2)c1 | -19.5 |
| CN1CCCN(C(=O)c2cnsn2)c2cc(F)ccc21 | 25.1 |
| CN1CCN(c2ccc(F)cc2C(N)=O)CC1 | -12.1 |
| Cc1ccc(C(=O)NCC(O)c2cnn(C)c2)c(Br)c1 (stereo unspecified) | -14.7 |
| Cc1ccc(F)c2c1N(C(=O)c1cn(CC(=O)N(C)C)nn1)CCC2 | -10.6 |
| CCOc1cncc(N2CCCC2c2nnc3n2CCCCC3)n1 (stereo unspecified) | -3.47 |
| COc1ccc(-n2ccc(C(=O)N(CCN(C)C)C(C)C)n2)cc1 | -10.3 |
| Cc1cc(N(C)C)nc(N2CCN(C(C)c3nc(C)no3)CC2)n1 (stereo unspecified) | 22.7 |
| COc1ccccc1C1(CNc2ccc(C(=O)N(C)C)cn2)CC1 | 25.8 |
| CCn1ncc2c1CCCC2NCc1csc(COC)n1 (stereo unspecified) | 21.6 |
| CCOc1ccc(N2CCC(C(O)c3ccccc3)CC2)nn1 (stereo unspecified) | 51.9 |

| Structure (SMILES) | cytotoxicity at 70.5 h [%] |
| --- | --- |
| CCN(CC(=O)NC(C)C)C(=O)C(C)(C)c1ccc2c(c1)OCCO2 | -8.1 |
| COc1cc(C)nc(N2CCN(C(C)c3nc(C)no3)CC2)n1 (stereo unspecified) | -6.32 |
| O=C1OCCN1CCS(=O)(=O)c1cccc(Br)c1 | -2.02 |
| O=S(=O)(NCCN1CC=CC1)c1ccc(Cl)cc1 | -6.79 |
| O=C1OCCN1CCS(=O)(=O)c1cccc(Cl)c1 | -5.19 |
| CS(=O)(=O)CCOCCNc1ccc(C#N)cc1F | -7.64 |
| CCOc1cccc(NC(=O)c2cscn2)n1 | -9.11 |
| CCOc1cccc(COC(=O)c2cscn2)n1 | -4.87 |
| COC(=O)c1ccc(N2CCC(c3ccccc3)CC2)nn1 | -8.39 |
| O=S(=O)(CCCNCCn1cccn1)c1ccccc1 | -14.5 |
| COCC(C)NC(=O)CN1CCC(C)CC1 (stereo unspecified) | -20.8 |
| CN(Cc1cccnc1)C(CO)c1cccc(Br)c1 (stereo unspecified) | -7.61 |
| CCS(=O)(=O)NC(CCSC)C(=O)Nc1ccc(F)cc1 (stereo unspecified) | -85.2 |
| CNS(=O)(=O)c1ccc(CNC(=O)N(C)C(C)COC)cc1 (stereo unspecified) | -97.7 |
| Cc1cc(N2CCc3cncnc3C2)n2nc(C(F)(F)F)nc2n1 | -104 |
| O=C(CN(CC(O)c1ccc(F)cc1)C1CC1)NC1CCOCC1 (stereo unspecified) | -91.7 |
| CNC(=O)c1ccccc1NCc1ncnn1C | -96.8 |
| CC(Nc1ccc(F)cc1)c1nnnn1-c1ccccc1 (stereo unspecified) | -109 |
| COc1ccc(C(N)=O)cc1NCc1ncc(C(C)(C)C)o1 | -81.1 |
| Cc1nc(N2CCCC2)ccc1NCc1ccccn1 | -96.9 |
| CCc1ccc(NC(=O)c2ncc(C(N)=O)cc2Cl)cc1F | -107 |
| Cc1cc(NC(=O)NC2CCN(C(C)C)CC2)c2ncccc2c1 | -85.3 |
| CC(C)n1cnnc1C1CCCN(S(=O)(=O)c2c[nH]cn2)C1 (stereo unspecified) | -78.9 |
| CCc1nn(C)c2[nH]nc(NC(=O)c3cccnc3NC(C)C)c12 | -50.3 |
| CCCNC(=O)c1cccc(CNCc2csc(C(C)(C)C)n2)c1 | -44.8 |

| Structure (SMILES) | cytotoxicity at 70.5 h [%] |
| --- | --- |
| CN(C)CCN(Cc1cccc(F)c1)C(=O)c1ccc2nccn2c1 | -43.4 |
| c1ccc(N2CCCC2)c(NCc2ccncc2)c1 | -39.9 |
| CS(=O)(=O)Cc1noc(CN2CCN(c3ccccc3Cl)CC2)n1 | -76.6 |
| OC(COc1ccccc1Br)COC1CCOCC1 (stereo unspecified) | 0.581 |
| CC(=O)NCCc1ccc(S(=O)(=O)Nc2cc(F)ccc2C)s1 | 3.63 |
| CC(C)c1ncc(Cl)c(C(=O)N2CCN(C3CC3)CC2)n1 | -7.86 |
| CCN(C(=O)Nc1nncs1)C(C)c1cccc(OC)c1 (stereo unspecified) | -9.86 |
| CCc1nc(CN2CCCCC2C(N)=O)cs1 (stereo unspecified) | -2.28 |
| CC(C)N(CCCNC(=O)C1CC1)S(C)(=O)=O | -4.77 |
| CCOCCN1CCN(CC(O)c2ccc(F)cc2)CC1 (stereo unspecified) | -6.89 |
| CN1CCN(c2ccccc2NC(=O)NCC[S+](C)[O-])CC1 (stereo unspecified) | -7.57 |
| CCOCCC(=O)Nc1ccnn1-c1ccc(Cl)cc1 | -3.17 |
| COc1ccc(CSc2nnc(N)n2C2CC2)cc1Cl | -8.32 |
| CN1CCN(c2ccc(F)cc2NC(=O)NCC[S+](C)[O-])CC1 (stereo unspecified) | -2.15 |
| CN1CCN(c2ccccc2NC(=O)c2ccco2)CC1 | -6.77 |
| O=C1CN(C(=O)CN(CC2CCC2)CC(F)(F)F)CCN1 | -9.35 |
| CCc1nc(C(=O)N2CCN(C)c3ccccc32)c[nH]1 | -9.6 |
| CN(Cc1nnn(CC2CCC2)n1)C(=O)c1ccccc1 | -2.78 |
| Cc1cnc(CCN(C)C(=O)c2ccc(O)nc2C)s1 | -2.62 |
| Cc1cnc(CCN(C)C(=O)c2cccc(C)c2O)s1 | -5.87 |
| CCOc1ccc(CSC(C)c2nc(C)no2)nc1 (stereo unspecified) | -6.64 |
| CCc1nc(CN2CCCC2C(=O)NC2CC2)cs1 (stereo unspecified) | -7.43 |
| CN1CCN(c2ncc(CNCCCc3cccc(F)c3)cn2)CC1 | 25.4 |
| COc1c(C)cnc(CN2CCCC(c3noc(C4CC4)n3)C2)c1C (stereo unspecified) | 7.81 |
| Cc1ccc(S(=O)(=O)N(CC2CCOC2)C2CC2)cc1N(C)C (stereo unspecified) | 0.338 |

| Structure (SMILES) | cytotoxicity at 70.5 h [%] |
| --- | --- |
| N#Cc1ccc(CN(CCF)Cc2cccc(F)c2)cc1 | 6.81 |
| CSCCC(NC(=O)C1CC1)C(=O)N(C)Cc1ccsc1 (stereo unspecified) | 10.7 |
| CN(Cc1nc(N)nc(N(C)C)n1)Cc1cccc2ccccc12 | -10.6 |
| CNC(=O)NC(=O)CN(Cc1ccc(C#N)cc1)Cc1cccc(F)c1 | -2.77 |
| O=C(CCN1CCOCC1)Nc1cccc(CNCc2cccs2)c1 | -8.33 |
| Cc1ccc(CNCc2cccc(NC(=O)CCN3CCOCC3)c2)s1 | -5.6 |
| COc1ccc(CCn2cnc(C#N)n2)cc1 | -12.6 |
| CC(C)N(Cc1ccccn1)C(=O)CCC(=O)c1ccccc1 | -7.32 |
| COCCOCC(=O)Nc1nc2c(OC)cc(F)cc2s1 | -8.97 |
| Cc1nc(C(C)C)sc1C(=O)NS(=O)(=O)c1ccc(C#N)cc1 | -9.15 |
| O=C1NCCN1C1CCN(Cc2ccccn2)CC1 | -5.43 |
| Cc1nc(CN(C)C(=O)Nc2cnn(CC3CCCO3)c2)cs1 (stereo unspecified) | -1.56 |
| CN(CCOc1cccc(CNC(=O)C2CC2)c1)C1CCOCC1 | -8.5 |
| CCOCC(O)CN1CCN(C(=O)c2ccnc(N(C)C)c2)CC1 (stereo unspecified) | -6.8 |
| CCNC(=O)N1CCCCC1CCO (stereo unspecified) | 12.6 |
| CN(Cc1cnccn1)C(=O)c1ccnc(OC2CCC2)c1 | -9.6 |
| Cc1cnn(CC2CCCN2CC(=O)N(C)Cc2ccc(C)o2)c1 (stereo unspecified) | -7.64 |
| CCOCC(O)CN1CCN(C(=O)c2cccc(F)c2)CC1 (stereo unspecified) | -7.93 |
| O=C(CN1CCc2ccccc21)Nc1ccc(OC(F)F)cc1 | 9.55 |
| O=C1CN(Cc2nnc(-c3ccc(Br)cc3)o2)CCN1 | 4.44 |
| Cn1cnc(S(=O)(=O)N2CCCC2)c1Cl | -10.3 |
